Data set [1] addresses T1, human cathepsin S (Homo sapiens, UniProt P25774).
T1 construct: purchased R&D 1183-CY-010
The data set can be described thus: Measurement of in vitro human cathepsin S inhibitory activity. Type of data set: biochemical. To be noted: substrate VVR-AMC 40 μM, pH 4.5, 37° C.; read-out: Dat1: IC50 value of human cathepsin S inhibitory activity. The procedure: Test Example 1: Measurement of In Vitro Human Cathepsin S Inhibitory Activity
To a 96-well plate, 5 μL of human cathepsin S enzyme (R&D 1183-CY-010) was added so as to be 20 ng/well. Next, with assay buffer (50 mM sodium acetate, 250 mM sodium chloride, and 5 mM dithiothreitol (DTT), pH=4.5), a test compound (10 mM DMSO solution) was diluted 10-fold dilution series with 5 steps so that a final concentration becomes 0.1 nM to 1 μM or diluted 3-fold dilution series with 7 steps so that a final concentration becomes 0.01 nM to 10 nM, and 10 μL thereof was added to the well (final DMSO concentration was 0.1%), followed by addition of 25 μL of synthetic substrate VVR-AMC (Peptide Institute 3211-V) so that a final concentration becomes 40 μM, and thereby an enzymatic reaction was initiated. The fluorescence intensity (excitation wavelength: 380 nm, fluorescence wavelength: 460 nm) was measured at 37° C. for 5 to 10 minutes from the start of the reaction using a spectrofluorophotometer (SPECTRAMAX GEMINI, Molecular Devices), and a reaction rate when linearity was recognized (5 minutes) was obtained for each concentration of the test compound. An inhibition rate at each concentration was defined by suppressing a reaction rate at the time of non-addition of an enzyme without adding the test compound and a reaction rate at the time of addition of an enzyme without adding the test compound by 100% inhibition and 0% inhibition, respectively, and therefore an IC50 value was calculated by a sigmoid Emax nonlinear regression method. In the table, Ex represents Example compound No., and Dat1 represents the IC50 value (nM) of human cathepsin S inhibitory activity.

The subject of data set [2] is MHC class II expression in B cells. Kind of data set: Inhibitory effect on in vitro MHC class II expression using mouse splenocytes (LPS-stimulated, B220 positive B cells). The class given is cell-based. Conditions: B-cell, C57BL/6J mouse splenocytes, LPS 2 μg/mL, 48 hours, YAe antibody, read-out: Dat2: IC50 value, inhibition of MHC class II expression. The source says:
Test Example 2: Evaluation of Inhibitory Effect on In Vitro MHC Class II Expression Using Mouse Splenocytes (Cell Evaluation System)
In antigen-presenting cells, inhibition of cathepsin S suppresses expression of MHC class II molecules. As a result, suppression of antigen presentation to CD4-positive T cells causes a deterioration in the immune response to foreign antigens. In regard to an increase in MHC class II expression in B cells, the inhibitory effect of the compound of the formula (I) was examined.
Splenocytes collected from male C57BL/6J mice (Charles River Laboratories Japan, Inc.) were seeded in a 96-well plate by 1×10^5 cells/well. With RPMI 1640 medium (containing 10% fetal bovine serum (FCS), 5×10^−5 M 2-mercaptoethanol, 50 IU/mL penicillin, and 50 μg/mL streptomycin), 10 mM DMSO solution of the test compound was diluted 5-fold dilution series with 9 steps so that a final concentration becomes […] to 10 μM, or diluted 5-fold dilution series with 12 steps so that a final concentration becomes 0.205 pM to 10 μM (final DMSO concentration is 0.1%), and added. At the same time, LPS (Sigma L4005) was added to the well so that the final concentration becomes 2 μg/mL, and the cells were cultured at 37° C. under 5% CO2 for 48 hours. After culturing, the cells were stained with biotin-labeled YAe antibody (EBIOSCIENCE 13-5741-85) at 4° C. for 20 minutes, and washed. The cells were further stained with FITC fluorochrome labeled anti-mouse B220 antibody (BD BIOSCIENCES 553088) and PE fluorochrome labeled streptavidin (BD BIOSCIENCES 554061) for 20 minutes at 4° C. Therefore, an expression level (fluorescence intensity of YAe-biotin/streptavidin-PE) of MHC class II bound to the Ea peptide in B220 positive B cells was measured by using a flow cytometry system (Guava EasyCyte Plus System, Millipore). An inhibition rate at each concentration was defined by suppressing a value at the time of non-stimulation of LPS without addition of the test compound and a value at the time of stimulation of LPS without addition of the test compound by 100% inhibition and 0% inhibition, respectively, and therefore an IC50 value was calculated by the sigmoid Emax nonlinear regression method. In the table, Ex represents Example compound No., and Dat2 represents the IC50 value (nM).

The test system of data set [3] is MHC class II expression in B cells of peripheral blood. Kind of data set: Ex vivo MHC class II expression inhibitory effect using mouse peripheral blood after oral administration. Type of data set: in vivo. To be noted: male C57BL/6J mice, 0.3 mg/kg oral, peripheral blood after 6 hours, LPS 100 μg/mL 15 hours. How it is done:
Test Example 3: Evaluation of Ex Vivo MHC Class II Expression Inhibitory Effect Using Mouse Peripheral Blood
The expression inhibitory effect of MHC class II molecules was evaluated in an ex vivo system.
The test compound was orally administered to male C57BL/6J mice (Charles River Laboratories Japan, Inc.), and an inhibition effect with respect to an increase in the expression of MHC class II in B cells of peripheral blood after oral administration was examined. That is, 10 mL/kg of the test compound dissolved in a vehicle [30% propylene glycol solvent {propylene glycol:hydrogenated castor oil (HCO40): Tween 80=4:2:1}/HCl (2 equivalents to the test compound)/water] was orally administered to male C57BL/6J mice (dose: 0.3 mg/kg, 4 subjects per group), and peripheral blood was recovered after 6 hours. To 90 μL of the peripheral blood, 10 μL of PBS or 10 μL (final concentration 100 μg/mL) of LPS (Sigma L4005) was added, and the culturing was carried out at 37° C. under 5% CO2 for 15 hours. […] After washing, using the flow cytometry system (FACSCanto II, BD BIOSCIENCES), an expression level of MHC class II on a surface of B220 positive B cells was measured with an average fluorescence intensity of FITC (hereinafter referred to as MFI) as an index. […]

In data set [4] the test system is NZB/W F1 mice (SLE-like disease). The data set can be described thus: Inhibitory effect on SLE-like disease onset in spontaneous onset model using NZB/W F1 mice. The class given is in vivo, mouse. To be noted: NZB/W F1 female mice. The source says: Test Example 4: Evaluation of Inhibitory Effect on SLE-Like Disease Onset in Spontaneous Onset Model Using NZB/W F1 Mice
NZB/W F1 mice (Japan SLC, Inc.) is used as a model of SLE spontaneously developing a disease condition close to humans (“JAMA”, 1966, Vol. 195, p. 145; “Advances in Immunology”, 1985, Vol. 37, p. 269-390; “Journal of Biomedicine and Biotechnology”, 2011, Vol. 2011, 271694).
NZB/W F1 female mice were divided into groups according to urine protein values (creatinine corrected value), anti-double stranded DNA (dsDNA) antibody value (IgG) in plasma, an expression level of MHC class II in B cells of peripheral blood, and body weight at age of 19 weeks. At this time, individuals with urine protein values (creatinine corrected value) of 3 or more were excluded. From age of 20 weeks, the test compound was orally administered twice a day, and then urine collection and blood collection were performed over time. The change in urine protein value and anti-dsDNA antibody value over time were evaluated.
In the above test, anti-dsDNA IgG antibody value in plasma generated in association with SLE-like disease was measured by ELISA method (ALPHA DIAGNOSTIC 5120). In geometric mean values of the antibody value at age of 28 weeks and age of 32 weeks of each individual, a geometric mean value of 10 vehicle-administered subjects was 216662 U/mL, whereas a geometric mean value of 10 subjects administered with 1 mg/kg b.i.d. of the compound of Example 2 was 26827 U/mL, which is a low value having a significant difference (P value=0.0009, Dunnett's multiple comparison). In addition, urine protein values (creatinine corrected value) at age of 40 weeks were measured. A geometric mean value of the 10 vehicle-administered subjects was 13.0, whereas a geometric mean value of the 10 subjects administered with 1 mg/kg b.i.d. of the compound of Example 2 was 0.7, which is a low value having a significant difference (P value=0.0005, Dunnett's multiple comparison).

SMILES strings stand for the structures. Structures can show the parent of a compound that is named as a salt.

T1 sequence (P25774 115-331): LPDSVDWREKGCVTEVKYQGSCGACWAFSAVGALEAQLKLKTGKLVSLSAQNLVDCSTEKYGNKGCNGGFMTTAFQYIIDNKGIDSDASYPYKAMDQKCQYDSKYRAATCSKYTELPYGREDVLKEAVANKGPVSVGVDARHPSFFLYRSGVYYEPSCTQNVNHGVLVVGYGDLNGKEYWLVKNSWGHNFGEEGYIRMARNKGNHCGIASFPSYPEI

Compound `CN1CCN(Cc2ccc(C(F)(F)[C@@H]3C[C@@H](C(=O)NC4(C#N)CC4)N(C(=O)C4(C)CC4)C3)c(C(F)(F)F)c2)CC1` (as salt: succinate) [Example 18, (4R)—N-(1-cyanocyclopropyl)-4-(difluoro{4-[(4-methylpiperazin-1-yl)methyl]-2-(trifluoromethyl)phenyl}methyl)-1-[(1-methylcyclopropyl)carbonyl]-L-prolinamide] had a melting point of 134.3 °C.

Regarding `CN1CCN(Cc2ccc(C(F)(F)C3C[C@@H](C(=O)NC4(C#N)CC4)N(C(=O)C4(C)CC4)C3)c(C(F)(F)F)c2)CC1` (mixture of isomers) [Example 8, N-(1-cyanocyclopropyl)-4-(difluoro{4-[(4-methylpiperazin-1-yl)methyl]-2-(trifluoromethyl)phenyl}methyl)-1-[(1-methylcyclopropyl)carbonyl]-L-prolinamide dihydrochloride], the IC50 in data set [1] stood at 0.88 nM; in data set [2], 0.59 nM. In addition, the “inhibition rate of ΔMFI (increase in expression of MHC class II on B220 positive B cells)” value in data set [3] stood at 41%.

As for `CN1CCN(Cc2ccc(C(F)(F)[C@@H]3C[C@@H](C(=O)NC4(C#N)CC4)N(C(=O)C4(C)CC4)C3)c(C(F)(F)F)c2)CC1` [Example 2, (4R)—N-(1-cyanocyclopropyl)-4-(difluoro{4-[(4-methylpiperazin-1-yl)methyl]-2-(trifluoromethyl)phenyl}methyl)-1-[(1-methylcyclopropyl)carbonyl]-L-prolinamide dihydrochloride], the IC50 was 0.81 nM in data set [1] and 0.65 nM in data set [2]. Also, in data set [4] (1 mg/kg b.i.d. oral), the “effect on SLE-like disease onset” value was “has the effect of suppressing the SLE-like disease onset”. Besides, in data set [4] (1 mg/kg b.i.d. oral from age of 20 weeks, age of 28 weeks and 32 weeks, 10 subjects, vehicle 216662 U/mL, P value=0.0009), the “anti-dsDNA IgG antibody value in plasma, geometric mean value” worked out at 26827 U/mL. Besides, the “urine protein value (creatinine corrected value), geometric mean value” in data set [4] (1 mg/kg b.i.d. oral, age of 40 weeks, 10 subjects, vehicle 13.0, P value=0.0005) came to 0.7.

As to `CN1CCN(Cc2ccc(C(F)(F)[C@@H]3C[C@@H](C(=O)NC4(C#N)CC4)N(C(=O)C4(C(F)(F)F)CC4)C3)c(C(F)(F)F)c2)CC1` [Example 4, (4R)—N-(1-cyanocyclopropyl)-4-(difluoro{4-[(4-methylpiperazin-1-yl)methyl]-2-(trifluoromethyl)phenyl}methyl)-1-{[1-(trifluoromethyl)cyclopropyl]carbonyl}-L-prolinamide], the values for the IC50 in data set [1] and in data set [2] were 1 nM and 0.62 nM, respectively.

For the compound `CCN1CCN(Cc2ccc(C(F)(F)[C@@H]3C[C@@H](C(=O)NC4(C#N)CC4)N(C(=O)C4(C(F)(F)F)CC4)C3)c(C(F)(F)F)c2)CC1` [Example 13], the concentration for half-maximal inhibition (IC50) in data set [1] is 1 nM; in data set [2], 0.37 nM.

As to `CCN1CCN(Cc2ccc(C(F)(F)[C@@H]3C[C@@H](C(=O)NC4(C#N)CC4)N(C(=O)C4(C)CC4)C3)c(C(F)(F)F)c2)CC1` [Example 14], the IC50 in data set [1] was determined as 0.43 nM; in data set [2], 0.6 nM.

The melting point is the temperature, or range, at which the solid turns liquid. What is called IC50 is the concentration that gives 50% inhibition.

For the origin of these results see patent publication US10532979B2, “Phenyldifluoromethyl-substituted prolinamide compound” (ASTELLAS PHARMA INC., priority 2017, dated 2020).
